Assay: Pharmacokinetics and tissue distribution in CD-1 mice
Assay type: in vivo
Description: Female ICR/CD-1 (18–20 g) mice were purchased from Harlan Laboratories (Indianapolis, IN), and female nude mice (nu/nu; 4–6 weeks) were purchased from Frederick Cancer Research and Development Center (Frederick, MD). All animal use and care procedures were approved by the Institutional Animal Care and Use Committee (IACUC) of the University of Alabama at Birmingham. All animals were fed with commercial diet and water ad libitum and were on an alternating 12 h light/dark cycle.
CD-1 and nude mice were randomly divided into groups of three, and were dosed either intravenously (5 mg/kg) or intraperitoneally (10 mg/kg) with BA-TPQ in PEG 400:ethanol:0.9% saline (57.1%:14.3%:28.6%). Before dosing, and at 5, 15, 30, 60 min, and 2, 4, 8, and 24 h after dosing, groups of animals (three/time point) were anesthetized, and blood was collected from the retro-orbital sinus into heparinized tubes. Plasma was obtained by centrifuging the blood samples at 14,000 rpm for 15 min. BA-TPQ was then extracted from plasma and stored at −80 °C. The brain, heart, kidneys, liver, lungs, and spleen were also collected at the same time points during necropsy, blotted on Whatman No. 1 filter paper, trimmed of extraneous fat and connective tissue, weighed, and homogenized in phosphate-buffered saline. The resulting homogenates were stored at −80 °C until further processing and analysis. Urine and feces were collected for 24 hr from mice housed in metabolic cages. After collection, the cages were also washed twice with 200 μL PBS, and the washes were collected and analyzed separately. The total urine was determined as the amount from the urine plus washes 1 and 2. Feces were homogenized in PBS, then extracted using the same procedure used for tissues.
Six hundred microliters of acetonitrile was added to 200 μL of plasma, urine, cage washes (first and second), or tissue/feces homogenate in an Eppendorf tube to precipitate proteins. After centrifugation at 14,000 rpm for 10 min, the supernatant was transferred to a glass tube and evaporated to dryness using a TurboVap® LV Concentration Workstation (Caliper Lifesciences, Hopkinton, MA). The residue was reconstituted with 500 μL ethyl acetate, sonicated for 10 min, and vortexed for 10 sec. Samples were then centrifuged again and the resulting supernatant was transferred to a new glass tube and evaporated to dryness. Finally, samples were reconstituted in 100 μL mobile phase, and 50 μL was injected into the HPLC system for analysis.
The averages of the BA-TPQ concentration in plasma and tissues following intravenous and intraperitoneal administration to three animals per time point were used for pharmacokinetic analyses using a two-compartmental model and a non-compartment model, respectively. The following pharmacokinetic parameters were estimated using Phoenix WinNonlin 6.0 (Mountain View, CA): area under the concentration-time curve (AUC, h·μg/mL), half-life (T½, h), maximum concentration (Cmax, μg/mL), time of the maximum concentration (Tmax, h), and clearance (CL, mL/h/kg), as applicable. Bioavailability (X) was calculated as X= [AUCip × doseiv]/[AUCiv × doseip].

[1] = female, ICR/CD-1, mouse, liver, IV 5 mg/kg
[2] = female, ICR/CD-1, mouse, lungs, IP 10 mg/kg
[3] = female, ICR/CD-1, mouse, lungs, IV 5 mg/kg
[4] = female, mouse, brain, IP 10 mg/kg
[5] = female, mouse, brain, IV 5 mg/kg
[6] = female, mouse, heart, IP 10 mg/kg
[7] = female, mouse, heart, IV 5 mg/kg
[8] = female, mouse, kidneys, IP 10 mg/kg
[9] = female, mouse, kidneys, IV 5 mg/kg
[10] = female, mouse, liver, IP 10 mg/kg
[11] = female, mouse, lungs, IV 5 mg/kg
[12] = female, mouse, plasma, IP 10 mg/kg
[13] = female, mouse, plasma, IV 5 mg/kg
[14] = female, mouse, spleen, IP 10 mg/kg
[15] = female, mouse, spleen, IV 5 mg/kg

With `O=C1C(NCc2ccccc2)=CC2=NCCc3c[nH]c1c32` [BA-TPQ, 7-(benzylamino)-1,3,4,8-tetrahydropyrrolo[4,3,2-de]quinolin-8(1H)-one] the “Time of greatest plasma concentration” value (IP 10 mg/kg) was 15 min, the Cl (brain, IP 10 mg/kg) was 2920 mL/min/kg and the AUC [1] was 650 ng·h/mL. For the same compound, the Cmax [1] was 690 ng/mL, the clearance [1] was 900 mL/min/kg and the half-life [1] was 39 min. The AUC [2] was 9150 ng·h/mL, the Cmax [2] was 12400 ng/mL and the Tmax [2] was 4.8 min. For the same compound, the half-life [2] was 30 min, the AUC [3] was 4980 ng·h/mL and the clearance [3] was 117 mL/min/kg. It also gave an AUC [4] of 190 ng·h/mL, a Cmax [4] of 180 ng/mL and a Tmax [4] of 15 min. For the same compound, the half-life [4] was 49.8 min, the AUC [5] was 220 ng·h/mL and the Cmax [5] was 750 ng/mL. The clearance [5] was 2630 mL/min/kg, the half-life [5] was 12.6 min and the AUC [6] was 4660 ng·h/mL. For the same compound, the Cmax [6] was 7240 ng/mL, the Tmax [6] was 4.8 min and the half-life [6] was 42.6 min. The AUC [7] was 1020 ng·h/mL, the Cmax [7] was 5340 ng/mL and the clearance [7] was 567 mL/min/kg. It also gave a half-life [7] of 7.8 min, an AUC [8] of 8060 ng·h/mL and a Cmax [8] of 8360 ng/mL. It also gave a Tmax [8] of 15 min, a half-life [8] of 28.8 min and an AUC [9] of 2830 ng·h/mL. It also gave a Cmax [9] of 9680 ng/mL, a clearance [9] of 200 mL/min/kg and a half-life [9] of 12 min. For the same compound, the AUC [10] was 150 ng·h/mL, the Cmax [10] was 470 ng/mL and the Tmax [10] was 4.8 min. It also gave a half-life [10] of 14.4 min, a Cmax [11] of 13000 ng/mL and a half-life [11] of 15.6 min. The AUC [12] was 110 ng·h/mL, the Cmax [12] was 110 ng/mL and the Tmax [12] was 4.8 min. It also gave a half-life [12] of 51.6 min, a bioavailability (female, mouse, plasma, IP 10 mg/kg vs IV 5 mg/kg, read-out: Intraperitoneal bioavailability) of 74% and an AUC [13] of 70 ng·h/mL. For the same compound, the Cmax [13] was 360 ng/mL, the clearance [13] was 8200 mL/min/kg and the half-life [13] was 8.4 min. The AUC [14] was 11300 ng·h/mL, the Cmax [14] was 23000 ng/mL and the Tmax [14] was 4.8 min. The half-life [14] was 24.6 min, the AUC [15] was 1800 ng·h/mL and the Cmax [15] was 4590 ng/mL. For the same compound, the clearance [15] was 317 mL/min/kg, the half-life [15] was 16.2 min and the Cl (heart, IP 10 mg/kg) was 130 mL/min/kg. The Cl (kidneys, IP 10 mg/kg) was 67 mL/min/kg, the Cl (liver, IP 10 mg/kg) was 4100 mL/min/kg and the Cl (lungs, IP 10 mg/kg) was 67 mL/min/kg. For the same compound, the Cl (plasma, IP 10 mg/kg) was 5750 mL/min/kg, the “Concentration in the plasma for the first 30 minutes” value (single bolus IV 5 mg/kg) was “up to 0.18 μg/mL” and the Cl (spleen, IP 10 mg/kg) was 50 mL/min/kg.
